This note sets out measurements from patent publication US20070202079A1, “Therapeutic compositions and methods useful in modulating protein tyrosine phosphatases” (priority 2006, published 2007).

Common to all, as to assay type: biochemical
In one assay the target is T1, SHP-1 (Mus musculus, UniProt P29351).
T1 construct: made in house
As to the kind of experiment: in vitro PTPase assay, GST/SHP-1. The conditions noted are these: for inhibitory activity against SHP-1: 3-4 μg/ml or 10-100 μg/ml. Here is the method: In vitro PTPase activities were measured using the commercial protein tyrosine phosphatase assay kit (Upstate Biotechnology, Inc. (“UBI”)) following established procedure known to one of skill in the art. […] Briefly, 0.01 μg of GST/PTPase fusion proteins was incubated in 50 μl of Tris buffer (10 mM Tris, pH 7.4) containing different concentrations of inhibitors or chemicals (0-1,000 μg/ml) at 22° C. for 10 minutes, followed by addition of 0.2 mM of the phosphotyrosine peptide and incubation at 22° […] 100 μl of Malachite Green solution was added and incubated for 5 minutes, and the absorbance at 660 nm was measured after 5 minutes.
To assess the reversibility of inhibition of SHP-1 by PTPase inhibitors, GST/SHP-1 fusion protein bound on glutathione beads were pre-incubated in cold Tris buffer or Tris buffer containing the PTPase inhibitors at 4° C. for 30 minutes. The beads were then either subjected to in vitro PTPase assays or washed 3 times in Tris buffer then subjected to in vitro PTPase assays.
Briefly, individual PTPases (0.1 μg/reaction) in 50 μL of PTPase buffer (50 mM Tris, pH 7.4) were incubated at 22° C. for 10 minutes or as indicated in the absence or presence of inhibitory compounds. Substrates (0.2 mM phosphotyrosine peptide) were then added and allowed to react at 22° C. for 18 hrs. PTPase activity of individual reactions was measured by adding 100 μL of malachite green solution (UBI) and then quantifying the amounts of free phosphate cleaved by the PTPase from the peptide substrate by spectrometry (OD660 nm). […] Relative PTPase activities were calculated based on the formula: (PTPase activity in the presence of an inhibitory compound/PTPase activity in the absence of the compound)× 100%. To assess the reversibility of PTPase inhibition, GST fusion proteins of the PTPases bound on glutathione beads (Pharmacia) were pre-incubated with cold Tris buffer (50 mM Tris, pH 7.0) or Tris buffer containing the inhibitor at 4° C. for 30 minutes. The beads were then washed three times in cold Tris buffer or not washed prior to subjecting to in vitro PTPase assays.

Another assay deals with T2, PRL-1 (Homo sapiens, UniProt Q93096).
T2 construct: cDNAs of human PRL-1, PRL-2 and PRL-3 coding region were derived by RT-PCR; made in house; host or cells: DH5a bacteria (E. coli)
As to the kind of experiment: in vitro PTPase assay, recombinant PRL-1. Conditions: 0.1-100 μg/ml. From the text:
(§1) Sodium stibogluconate, suramin, sodium orthovanadate and GST fusion protein of SHP-1 have been described previously (Pathak et al., J. Immunol. 167, 3391 (2001)). Meglumine antimonate was obtained from Aventis. cDNAs of human PRL-1, PRL-2 and PRL-3 coding region were derived by RT-PCR from H9 cells (Safai, et al., Lancet 1, 1438 (1984)) and inserted in frame into the pGEX vector. cDNA of PRL-1R86 was generated by recombinant DNA technique using PRL-1 cDNA as template following established procedures (Jiao, et al., Mol. Cell. Biol. 16, 6985 (1996)). […]
(§2) In vitro PTPase assays were used to determine the effects of compounds on recombinant PTPases, following established procedures using a synthetic phosphotyrosine peptide or DiFMUP as the substrate (Pathak et al., J. Immunol. 167, 3391 (2001)). […] PTPase activity of individual reactions was measured by adding 100 μL of malachite green solution (UBI) and then quantifying the amounts of free phosphate cleaved by the PTPase from the peptide substrate by spectrometry (OD660 nm). […] Relative PTPase activities were calculated based on the formula: (PTPase activity in the presence of an inhibitory compound/PTPase activity in the absence of the compound)× 100%. […]

In a further assay the target is T3, PRL-2 (Homo sapiens, UniProt Q12974).
T3 construct: cDNAs of human PRL-1, PRL-2 and PRL-3 coding region were derived by RT-PCR; made in house; host or cells: DH5a bacteria (E. coli)
As to the kind of experiment: in vitro PTPase assay, recombinant PRL-2.
Excerpt: as §1, §2

For the next assay, the target named is T4, PRL-3 (Homo sapiens, UniProt O75365).
T4 construct: cDNAs of human PRL-1, PRL-2 and PRL-3 coding region were derived by RT-PCR; made in house; host or cells: DH5a bacteria (E. coli)
The assay is described as follows: in vitro PTPase assay, recombinant PRL-3. The conditions noted are these: for remaining PRL-3 PTPase activity: 0.1-100 μg/ml. From the text:
Sodium stibogluconate, suramin, sodium orthovanadate and GST fusion protein of SHP-1 have been described previously (Pathak et al., J. Immunol. 167, 3391 (2001)). Meglumine antimonate was obtained from Aventis. cDNAs of human PRL-1, PRL-2 and PRL-3 coding region were derived by RT-PCR from H9 cells (Safai, et al., Lancet 1, 1438 (1984)) and inserted in frame into the pGEX vector. cDNA of PRL-1R86 was generated by recombinant DNA technique using PRL-1 cDNA as template following established procedures (Jiao, et al., Mol. Cell. Biol. 16, 6985 (1996)). GST fusion proteins of the PRL phosphatases were prepared from DH5a bacteria transformed with the pGEX fusion protein constructs as described previously (Yi, et al., Mol. Cell. Biol. 12, 836 (1992)). cDNAs encoding the PRLs tagged at the N-termini with the Flag epitope (Castrucci, et al., J. Virol. 66, 4647 (1992)) were generated via recombinant DNA technique, sequenced to confirm their identities and cloned into the pBabepuro vector (Yang, et al., Blood 91, 3746 (1998)). Anti-Flag monoclonal antibody (M2, Sigma) was purchased from a commercial source. A synthetic phosphotyrosine peptide (Arg-Arg-Leu-Ile-Glu-Asp-Ala-Gle-Tyr-Al- -a-Ala-Arg-Gly (SEQ ID NO: 3), wherein the tyrosine is phosphorylated; UBI) and DiFMUP (6, 8-difluoro-4-methylumbelliferyl phosphate, Molecular Probes) were purchased as substrates for PTPase assays.
In vitro PTPase assays were used to determine the effects of compounds on recombinant PTPases, following established procedures using a synthetic phosphotyrosine peptide or DiFMUP as the substrate (Pathak et al., J. Immunol. 167, 3391 (2001)). Briefly, individual PTPases (0.1 μg/reaction) in 50 μL of PTPase buffer (50 mM Tris, pH 7.4) were incubated at 22° C. for 10 minutes or as indicated in the absence or presence of inhibitory compounds. Substrates (0.2 mM phosphotyrosine peptide) were then added and allowed to react at 22° C. for 18 hrs. PTPase activity of individual reactions was measured by adding 100 μL of malachite green solution (UBI) and then quantifying the amounts of free phosphate cleaved by the PTPase from the peptide substrate by spectrometry (OD660 nm). PTPase assays using DiFMUP as a substrate were conducted following a previously described procedure (Matter, et al., Biochem. Biophys. Res. Comm. 283, 1061 (2001)). Relative PTPase activities were calculated based on the formula: (PTPase activity in the presence of an inhibitory compound/PTPase activity in the absence of the compound)× 100%. To assess the reversibility of PTPase inhibition, GST fusion proteins of the PTPases bound on glutathione beads (Pharmacia) were pre-incubated with cold Tris buffer (50 mM Tris, pH 7.0) or Tris buffer containing the inhibitor at 4° C. for 30 minutes. The beads were then washed three times in cold Tris buffer or not washed prior to subjecting to in vitro PTPase assays.

The next assay relates to GSTm8. As to the kind of experiment: in vitro PTPase assay, GSTm8. The conditions noted are these: 3-4 μg/ml or 10-100 μg/ml. From the text: In vitro PTPase assays were used to determine the effects of levamisole (Sigma), pentamidine (American Pharmaceutical Partners, Inc.), and ketoconazole (Sigma) on recombinant PTPases, following established procedures (Pathak et al., J. Immunol. 167, 3391 (2001); Pathak et al., Leukemia 16, 2285 (2002), Yi et al., J. Immunol. 169, 5978 (2002)) using a synthetic phosphotyrosine peptide or DiFMUP as the substrate as detailed above in section I.A.2.

T4 sequence (O75365 whole entry): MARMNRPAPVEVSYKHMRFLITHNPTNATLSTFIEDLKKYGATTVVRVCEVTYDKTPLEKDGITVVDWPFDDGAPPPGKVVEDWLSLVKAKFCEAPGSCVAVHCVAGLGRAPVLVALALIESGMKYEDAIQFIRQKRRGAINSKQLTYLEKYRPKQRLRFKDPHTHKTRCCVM
T1 sequence (P29351 whole entry): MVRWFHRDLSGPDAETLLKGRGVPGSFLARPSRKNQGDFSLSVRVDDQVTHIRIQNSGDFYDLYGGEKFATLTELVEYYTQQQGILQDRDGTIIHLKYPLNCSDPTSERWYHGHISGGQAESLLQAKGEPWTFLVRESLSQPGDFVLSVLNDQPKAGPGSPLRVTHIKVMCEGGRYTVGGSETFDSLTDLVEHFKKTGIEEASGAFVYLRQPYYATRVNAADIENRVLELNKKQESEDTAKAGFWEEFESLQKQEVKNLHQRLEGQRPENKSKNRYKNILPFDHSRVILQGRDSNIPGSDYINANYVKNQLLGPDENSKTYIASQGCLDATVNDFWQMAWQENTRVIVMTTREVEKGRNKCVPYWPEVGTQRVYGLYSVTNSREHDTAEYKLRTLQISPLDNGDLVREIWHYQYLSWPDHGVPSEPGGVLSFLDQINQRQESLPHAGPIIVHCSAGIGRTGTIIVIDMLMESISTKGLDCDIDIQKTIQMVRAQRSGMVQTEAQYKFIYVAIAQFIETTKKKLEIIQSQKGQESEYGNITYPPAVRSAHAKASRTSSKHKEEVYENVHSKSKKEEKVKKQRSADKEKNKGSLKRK
T2 sequence (Q93096 whole entry): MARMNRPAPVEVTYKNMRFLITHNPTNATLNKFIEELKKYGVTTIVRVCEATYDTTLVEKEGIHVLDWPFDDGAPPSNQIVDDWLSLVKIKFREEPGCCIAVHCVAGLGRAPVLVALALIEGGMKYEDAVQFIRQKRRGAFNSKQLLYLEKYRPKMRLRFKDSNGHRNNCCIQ
T3 sequence (Q12974 whole entry): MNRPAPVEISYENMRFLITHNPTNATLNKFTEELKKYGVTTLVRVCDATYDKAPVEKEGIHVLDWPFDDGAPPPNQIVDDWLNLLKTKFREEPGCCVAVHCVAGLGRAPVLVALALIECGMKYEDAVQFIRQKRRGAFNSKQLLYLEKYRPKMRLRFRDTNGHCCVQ

On to `CC(=O)N1CCN(c2ccc(OCC3COC(Cn4ccnc4)(c4ccc(Cl)cc4Cl)O3)cc2)CC1` (centres unmarked) [ketoconazole], for which, on SHP-1, the “inhibitory activity against SHP-1” value was “no obvious inhibitory activity”. Also, at PRL-1, the “retained PRL-1 PTPase activity” value is 60-70%. The “activity against PRL-2” value on PRL-2 was “not effective”. Also, the “remaining PRL-3 PTPase activity” value at PRL-3 was 25-40%. The “inhibitory activity against GSTm8” value in the assay with GSTm8 was “no obvious inhibitory activity”.
As to `N=C(N)c1ccc(OCCCCCOc2ccc(C(=N)N)cc2)cc1` [pentamidine], at SHP-1, the “inhibitory activity against SHP-1” value is reported as “no obvious inhibitory activity”. Moreover, on PRL-1, the “retained PRL-1 PTPase activity” value is 70-80%. For the same compound, the “activity against PRL-2” value at PRL-2 is on record as “not effective”. Moreover, the “remaining PRL-3 PTPase activity” value at PRL-3 is recorded as 20-30%. In the assay with GSTm8, the “inhibitory activity against GSTm8” value is “no obvious inhibitory activity”.
Turning to `O.O.O.O.O.O.O.O.O.O=C([O-])[C@@H]1[O][Sb]2([O-])([O][Sb]34([OH])[O][C@H]([C@H](O)CO)[C@H]([O]3)[C@H](C(=O)[O-])[O]4)[O][C@H]([C@H](O)CO)[C@@H]1[O]2.[Na+].[Na+].[Na+]` [sodium stibogluconate], the “activity of parental mixture against recombinant SHP-1” value at SHP-1 (Sb concentration of 10 μg/ml) is on record as “inactivated SHP-1”. On SHP-1 (pre-incubated 30 min at 4 °C, beads washed 3 times), the “inhibition of GST/SHP-1 after washing (reversibility)” value is reported as “not affected by washing”. Besides, on PRL-3, the “inhibition of PRL-3 after washing” value was “not relieved by a washing process”. For the same compound, the “inactivation of PRL-3 with prolonged pre-incubation” value at PRL-3 (10 μg/ml, pre-incubation 30 or 60 minutes) is listed as “nearly complete inactivation”.
